In brackets after ≈: the same amount, converted by molar mass. Several values for one entry are separate records, joined by “and”; a condition that tells them apart may be missing. Equal values may be shown once. A value given as a limit tells only on which side of the number the result lay.

Among the test systems are Acinetobacter baumannii; Bacillus subtilis 168; Staphylococcus aureus; Escherichia coli B; Pseudomonas aeruginosa.
What all share (test): ≥ marks a high value that may be exact or a test limit, other limits are often not marked, values filed in µg/mL are converted to µM
Assay [1] has as its system Staphylococcus aureus ATCC 25923.
The subject of assay [2] is Pseudomonas aeruginosa ATCC 9027.
In assay [3] the test system is Escherichia coli ATCC 25922.
The subject of assay [4] is Klebsiella pneumoniae ATCC 700603.
In assay [5] the test system is Pseudomonas aeruginosa ATCC 27853.
Assay [6] concerns Salmonella enterica subsp. enterica serovar Typhimurium ATCC 14028.
For assay [7], the system named is Klebsiella pneumoniae ATCC 13883.
Assay [8] deals with Escherichia coli DH5alpha.
Assay [9] relates to Staphylococcus aureus NCTC 8325.
Assay [10] deals with Acinetobacter baumannii ATCC 19606.
In assay [11] the test system is Bacillus subtilis ATCC 23857.
Assay [12] concerns Candida albicans ATCC 10231.

What is called MIC is the lowest concentration found to suppress growth. Read a low MIC as a more susceptible organism. As to `CC[C@H](C)[C@H](NC(=O)[C@H](C)N)C(=O)N[C@@H](CC(C)C)C(=O)N[C@@H](CCCN=C(N)N)C(=O)N[C@@H](CCCCN)C(=O)N[C@@H](C)C(=O)N[C@H](C(=O)N[C@@H](CCCN=C(N)N)C(=O)N[C@@H](CCCN=C(N)N)C(=O)N[C@@H](CC(C)C)C(=O)N[C@H](C(=O)N[C@@H](CCC(N)=O)C(=O)N[C@@H](CC(C)C)C(=O)N[C@H](C(=O)N[C@H](C(=O)N[C@@H](CO)C(=O)NCC(=O)O)C(C)C)[C@@H](C)CC)C(C)C)[C@@H](C)O` [AILRKATRRLVQLIVSG], the MIC is above 25 µM in assay [1]; 25 µM (≈ 47.4 µg/mL) in the assay with Acinetobacter baumannii; above 25 µM in [2]; above 25 µM in assay [3]; above 25 µM in assay [4].

For `CC[C@H](C)[C@H](NC(=O)[C@H](Cc1cnc[nH]1)NC(=O)[C@H](C)NC(=O)[C@H](CCSC)NC(=O)[C@H](CC(N)=O)NC(=O)[C@H](CCCCN)NC(=O)[C@H](CCCCN)NC(=O)[C@@H](NC(=O)[C@@H](NC(=O)[C@H](CCCCN)NC(=O)[C@H](C)NC(=O)[C@H](Cc1ccccc1)NC(=O)[C@H](CC(C)C)NC(=O)[C@H](CCCCN)NC(=O)[C@@H]1CCCN1C(=O)[C@H](CC(C)C)NC(=O)[C@H](Cc1ccccc1)NC(=O)[C@@H](N)CS)[C@@H](C)CC)[C@@H](C)O)C(=O)N[C@@H](CCCN=C(N)N)C(=O)O` [CFLPKLFAKITKKNMAHIR], the MIC is 10 µM (≈ 22.6 µg/mL) in assay [5]; 15 µM (≈ 33.9 µg/mL) in [6]; 7 µM and 5 µM in [7]; 10 µM (≈ 22.6 µg/mL) in [8].

For `CC[C@H](C)[C@H](NC(=O)[C@@H](NC(=O)[C@H](CO)NC(=O)[C@@H]1CCCN1C(=O)[C@@H](NC(=O)[C@H](CC(C)C)NC(=O)[C@H](CCCCN)NC(=O)[C@H](Cc1ccccc1)NC(=O)[C@H](CC(C)C)NC(=O)CNC(=O)CNC(=O)[C@H](CC(C)C)NC(=O)[C@@H](N)Cc1ccccc1)C(C)C)C(C)C)C(=O)N[C@H]1CSSC[C@@H](C(=O)O)NC(=O)[C@H](CCCCN)NC(=O)[C@H](CCCCN)NC(=O)[C@H]([C@@H](C)O)NC(=O)[C@H](C(C)C)NC(=O)[C@H](C)NC1=O` [FLGGLFKLVPSVICAVTKKC], the MIC in assay [9] and in assay [3] was 12.5 µM (≈ 26.5 µg/mL) throughout.

Turning to `CC[C@H](C)[C@H](NC(=O)[C@H](CCCCN)NC(=O)[C@H](CCCCN)NC(=O)[C@@H](NC(=O)[C@@H](NC(=O)[C@H](CCCCN)NC(=O)[C@H](CCCCN)NC(=O)[C@@H](NC(=O)[C@@H](NC(=O)CN)[C@@H](C)CC)[C@@H](C)CC)[C@@H](C)CC)[C@@H](C)CC)C(N)=O` [GIIKKIIKKI], the MIC in assay [5] is at least 64 µM; in [1], at least 128 µM; in assay [10], at least 64 µM; in assay [11], 16 µM (≈ 18.4 µg/mL); in assay [8], at least 125 µM; in the assay on Bacillus subtilis 168, 30 µM (≈ 34.6 µg/mL). For the same molecule, the MIC is at least 32 µM in assay [3] and at least 128 µM in [4].

On to `CSCC[C@H](NC(=O)[C@H](Cc1c[nH]c2ccccc12)NC(=O)[C@H](CCCCN)NC(=O)CN)C(=O)N[C@@H](CO)C(=O)N[C@@H](CC(C)C)C(=O)N[C@@H](CC(C)C)C(=O)N[C@@H](CCCCN)C(=O)N[C@@H](Cc1cnc[nH]1)C(=O)N[C@@H](Cc1c[nH]c2ccccc12)C(=O)N[C@@H](CC(C)C)C(=O)N[C@@H](CCCCN)C(N)=O` [GKWMSLLKHWLK], for which the MIC in the assay on Staphylococcus aureus stood at 13.8 µM (≈ 21.1 µg/mL); in the assay with Bacillus subtilis 168, 1.3 µM (≈ 1.98 µg/mL); against Escherichia coli B it was 3.5 µM (≈ 5.34 µg/mL); against Pseudomonas aeruginosa, 25 µM (≈ 38.1 µg/mL).

For `CC[C@H](C)[C@H](NC(=O)[C@H](CCC(N)=O)NC(=O)[C@H](CCCCN)NC(=O)[C@H](CC(C)C)NC(=O)[C@H](CC(C)C)NC(=O)[C@H](CO)NC(=O)[C@H](CCSC)NC(=O)[C@H](Cc1c[nH]c2ccccc12)NC(=O)[C@H](CCCCN)NC(=O)CN)C(=O)N[C@@H](CC(C)C)C(=O)N[C@@H](CCCCN)C(N)=O` [GKWMSLLKQILK], the MIC in the assay with Staphylococcus aureus was found to be 10.8 µM (≈ 15.6 µg/mL); against Bacillus subtilis 168 it was 1.8 µM (≈ 2.6 µg/mL); in the assay on Escherichia coli B, 2.5 µM (≈ 3.61 µg/mL); with Pseudomonas aeruginosa it was 50 µM (≈ 72.2 µg/mL).

Turning to `CC[C@H](C)[C@H](NC(=O)CNC(=O)[C@H](CCC(N)=O)NC(=O)[C@H](Cc1ccccc1)NC(=O)[C@H](Cc1ccccc1)NC(=O)[C@H](CCCCN)NC(=O)[C@H](CCCCN)NC(=O)[C@H](CC(C)C)NC(=O)[C@H](C)NC(=O)[C@H](CC(N)=O)NC(=O)[C@H](CC(C)C)NC(=O)CN)C(=O)N[C@@H](Cc1cnc[nH]1)C(=O)N[C@@H](CCC(=O)O)C(=O)N[C@@H](C)C(=O)N[C@H](C(=O)N[C@@H](CCCCN)C(=O)N[C@@H](CC(C)C)C(=O)N[C@H](C(=O)N[C@@H](CC(N)=O)C(=O)N[C@@H](CC(N)=O)C(=O)N[C@@H](Cc1cnc[nH]1)C(=O)N[C@H](C(=O)N[C@@H](CCC(N)=O)C(=O)O)C(C)C)[C@@H](C)CC)[C@@H](C)CC` [GLNALKKFFQGIHEAIKLINNHVQ], the values for the MIC in assay [9] and in assay [3] were at least 160 µM and 20 µM (≈ 54.7 µg/mL), respectively.

Consider `CC(C)C[C@H](NC(=O)[C@H](Cc1ccc(O)cc1)NC(=O)[C@H](CCCCN)NC(=O)[C@H](CC(C)C)NC(=O)[C@H](CC(C)C)NC(=O)[C@H](CCCCN)NC(=O)[C@H](CCCCN)NC(=O)[C@H](Cc1ccccc1)NC(=O)[C@H](CC(C)C)NC(=O)[C@H](CCCN=C(N)N)NC(=O)[C@@H](N)CCCCN)C(=O)N[C@@H](CCCN=C(N)N)C(=O)N[C@@H](CCCCN)C(=O)N[C@@H](Cc1ccccc1)C(=O)O` [KRLFKKLLKYLRKF], for which the MIC is 1.06 µM (≈ 2 µg/mL) in assay [5]; 2.13 µM (≈ 4 µg/mL) in [12]; 0.531 µM (≈ 1 µg/mL) in [1]; 1.06 µM (≈ 2 µg/mL) in the assay on Acinetobacter baumannii; 1.06 µM (≈ 2 µg/mL) in assay [10]; 0.531 µM (≈ 1 µg/mL) in assay [3]. Besides, in the assay with Pseudomonas aeruginosa, the MIC came to 2.13 µM (≈ 4 µg/mL).

In [8], `CC[C@H](C)[C@H](NC(=O)CNC(=O)[C@H](CCCN=C(N)N)NC(=O)[C@H](Cc1ccc(O)cc1)NC(=O)[C@@H](NC(=O)[C@@H](NC(=O)[C@H](CCCN=C(N)N)NC(=O)[C@H](Cc1ccccc1)NC(=O)[C@@H](NC(=O)[C@H](Cc1c[nH]c2ccccc12)NC(=O)[C@H](Cc1c[nH]c2ccccc12)NC(=O)[C@@H](N)CCCCN)C(C)C)C(C)C)C(C)C)C(=O)N[C@H](C(=O)N[C@@H](Cc1ccc(O)cc1)C(=O)N[C@@H](CCCN=C(N)N)C(=O)N[C@@H](CCCN=C(N)N)C(=O)N[C@H](C(=O)N[C@@H](CCCN=C(N)N)C(=O)N[C@@H](Cc1c[nH]c2ccccc12)C(=O)N[C@@H](CCCCN)C(=O)O)C(C)C)C(C)C` [KWWVFRVVYRGIVYRRVRWK] showed an MIC of 12.5 µM (≈ 34.4 µg/mL).

As for `CC[C@H](C)[C@H](NC(=O)[C@H](CCCCN)NC(=O)[C@H](CCCCN)NC(=O)[C@H](Cc1c[nH]c2ccccc12)NC(=O)[C@@H](NC(=O)[C@@H](N)CC(N)=O)C(C)C)C(=O)N[C@@H](CC(C)C)C(=O)NCC(=O)N[C@@H](CCCCN)C(=O)N[C@H](C(=O)N[C@H](C(=O)N[C@@H](CCCCN)C(=O)N[C@H](C(=O)N[C@H](C(=O)N[C@@H](CCCCN)C(N)=O)C(C)C)C(C)C)[C@@H](C)CC)[C@@H](C)CC` [NVWKKILGKIIKVVK], the MIC is 9 µM (≈ 15.9 µg/mL) in the assay with Staphylococcus aureus, 0.7 µM (≈ 1.24 µg/mL) in the assay on Bacillus subtilis 168, 1.4 µM (≈ 2.47 µg/mL) with Escherichia coli B and 23.1 µM (≈ 40.8 µg/mL) in the assay with Pseudomonas aeruginosa.

Consider `CC[C@H](C)[C@H](NC(=O)[C@@H](NC(=O)[C@@H]1CCCN1C(=O)[C@H](CC(C)C)NC(=O)[C@@H](NC(=O)[C@@H](N)CO)[C@@H](C)CC)[C@@H](C)O)C(=O)N[C@H](C(=O)N[C@@H](CO)C(=O)N[C@@H](Cc1ccccc1)C(=O)N[C@@H](CC(C)C)C(=O)N[C@@H](CO)C(=O)N[C@@H](CCCCN)C(=O)N[C@@H](Cc1ccccc1)C(=O)N[C@@H](CC(C)C)C(N)=O)C(C)C` [SILPTIVSFLSKFL], for which the MIC in [9] worked out at 24 µM (≈ 37.5 µg/mL).

As to `CC[C@H](C)[C@H](NC(=O)[C@H](Cc1cnc[nH]1)NC(=O)[C@H](CCCCN)NC(=O)[C@H](CC(C)C)NC(=O)[C@H](CC(C)C)NC(=O)[C@H](CO)NC(=O)[C@H](CCSC)NC(=O)[C@H](Cc1c[nH]c2ccccc12)NC(=O)[C@H](CCCCN)NC(=O)[C@@H](N)CO)C(=O)N[C@@H](CC(C)C)C(=O)N[C@@H](CCCCN)C(N)=O` [SKWMSLLKHILK], the MIC in the assay with Staphylococcus aureus came out at 9.2 µM (≈ 13.6 µg/mL); with Bacillus subtilis 168 it was 1.1 µM (≈ 1.63 µg/mL); in the assay on Escherichia coli B, 2.3 µM (≈ 3.41 µg/mL); against Pseudomonas aeruginosa, 50 µM (≈ 74.1 µg/mL).

`CC[C@H](C)[C@H](NC(=O)[C@H](CCCCN)NC(=O)[C@@H]1CCCN1C(=O)[C@H](CC(C)C)NC(=O)[C@@H](NC(=O)[C@H](CCCCN)NC(=O)[C@H](CCCCN)NC(=O)[C@H](Cc1c[nH]c2ccccc12)NC(=O)[C@H](CC(N)=O)NC(=O)[C@@H](N)C(C)C)C(C)C)C(=O)N[C@H](C(=O)N[C@@H](CCCCN)C(=O)N[C@H](C(=O)N[C@@H](C)C(=O)N[C@@H](CCCCN)C(N)=O)C(C)C)[C@@H](C)CC` [VNWKKVLPKIIKVAK]: the MIC is above 100 µM in the assay on Staphylococcus aureus, 0.9 µM (≈ 1.59 µg/mL) in the assay on Bacillus subtilis 168, 5 µM (≈ 8.82 µg/mL) in the assay on Escherichia coli B and 100 µM (≈ 176 µg/mL) in the assay on Pseudomonas aeruginosa.
